Like-named read-outs stand apart in the source and are kept apart here.
Legend:
C1s [1] = target: T1, C1s (Homo sapiens, UniProt P09871); settings: ref PubChem; read-out: IC50 C1s; cited from earlier work
T1 construct: Recombinant C1s and C1r fragments (CCP1-CCP2-SP, the γB catalytic region); made in house
T1 sequence (P09871 438-688 limits assumed): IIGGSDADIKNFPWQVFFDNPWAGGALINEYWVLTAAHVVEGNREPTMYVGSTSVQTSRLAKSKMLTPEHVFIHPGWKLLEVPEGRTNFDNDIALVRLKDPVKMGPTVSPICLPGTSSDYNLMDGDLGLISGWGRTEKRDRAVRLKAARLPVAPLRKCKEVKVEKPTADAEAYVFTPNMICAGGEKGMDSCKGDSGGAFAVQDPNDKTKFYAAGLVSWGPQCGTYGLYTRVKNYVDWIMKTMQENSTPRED

C1s [2] = target: T1, C1s; settings: ref Subasinghe et al, 2004 [5]; read-out: Ki (C1s, thiopheneamidine inhibitors); cited from earlier work
C1s [3] = target: T1, C1s; experiment: C1s inhibition IC50 assay (thioester substrate Z-Lys-SBzl with DTNB, photometric); type: biochemical; settings: read-out: IC50 C1s
Text: Recombinant C1s and C1r fragments (CCP1-CCP2-SP, the γB catalytic region) containing the serine protease domain were expressed in E. Coli BL21(DE3)pLysS host strain (transformed with pET-17b vector) in form of inclusion bodies; proteins were isolated, renatured and purified as published earlier. Recombinant C1s, isolated in intact proenzyme form, was activated by limited proteolysis using the recombinant, autoactivated C1r fragment. Activated C1s and C1r were separated using Q Sepharose HP (Amersham Biosciences, Little Chalfont, UK) anion exchange chromatography.
40 µL enzyme + 10 µL inhibitor compounds were incubated (10 min, RT), and 50 µL substrate solution (1 mM final concentration) was added; incubated for 45 min and finally absorbance was read (405 nm) with a Perkin Elmer Wallac 1420 Victor2 microplate reader.

Human isolated Factor Xa = target: T2, Human isolated Factor Xa (Homo sapiens, UniProt P00742); experiment: Factor Xa activity assay (fluorescent substrate Boc-Leu-Gly-Arg-AMC); type: biochemical; settings: for remaining activity at 10 µM: 10 µM compound
T2 construct: purchased ThermoFisher Scientific (Waltham, MA, USA)
T2 sequence (P00742 235-488 limits assumed): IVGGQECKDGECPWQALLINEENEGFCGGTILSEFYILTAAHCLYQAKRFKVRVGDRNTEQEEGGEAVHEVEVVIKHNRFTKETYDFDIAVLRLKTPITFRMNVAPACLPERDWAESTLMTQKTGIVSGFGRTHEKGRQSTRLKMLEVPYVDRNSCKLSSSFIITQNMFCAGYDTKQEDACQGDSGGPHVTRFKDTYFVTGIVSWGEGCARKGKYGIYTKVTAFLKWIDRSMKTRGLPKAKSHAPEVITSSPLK
T2 sequence (P00742 41-179 partner limits assumed): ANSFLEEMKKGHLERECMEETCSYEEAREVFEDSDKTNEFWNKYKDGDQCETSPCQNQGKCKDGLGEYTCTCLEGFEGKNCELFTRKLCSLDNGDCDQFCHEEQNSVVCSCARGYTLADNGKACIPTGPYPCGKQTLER
Procedure: Human isolated Factor Xa protein was purchased from ThermoFisher Scientific (Waltham, MA, USA). An end-point assay was carried out using the fluorescent amide substrate Boc-Leu-Gly-Arg-AMC used for C1s 10 µM screen; assay conditions: 20 mM HEPES (pH 7,8) 100 mM NaCl, 10 mM CaCl2 30 °C, 0.05% TWEEN-20, 1% DMSO; low enzyme concentration (about 1 nM); in a 96 well microplate format (in 100 µL), using non-binding black plates (Greiner).

[4] = 1 mM Z-Lys-SBzl, enzyme below 1 nM
[5] = 1 mM Z-Lys-SBzl, text and Figure S1
[6] = 1 mM ZLysSBzl, Figure S1 curves

SMILES	Ki (C1s [2])	IC50 (C1s [3]; [4])	remaining activity at 10 µM (Human isolated Factor Xa)	also measured
O=C(c1ccc2c(c1)OCO2)C1C2C(=O)N(c3ccc4c(c3)OCCO4)C(=O)C2C2c3ccccc3C=CN12 (centres unmarked) [4,257,399]				IC50 (C1s [1]): 880 nM
COc1ccc(-c2csc(-c3cc(C(=N)N)sc3SC)n2)cc1 [CHEMBL28618]	900 nM			
CSc1sc(C(=N)N)cc1-c1nc(-c2cnccc2Cl)cs1 [CHEMBL28723]	870 nM			
CSc1sc(C(=N)N)cc1-c1nc(-c2csc3ccccc23)cs1 [CHEMBL28875]	450 nM			
CSc1sc(C(=N)N)cc1-c1nc(-c2ccccc2C)cs1 [CHEMBL28949]	850 nM			
CSc1sc(C(=N)N)cc1-c1nc(-c2ccc([N+](=O)[O-])cc2)cs1 [CHEMBL29006]	1000 nM			
COc1cccc(-c2csc(-c3cc(C(=N)N)sc3SC)n2)c1 [CHEMBL29205]	470 nM			
CSc1sc(C(=N)N)cc1-c1nc(Cc2ccccc2)cs1 [CHEMBL29269]	1060 nM			
CSc1sc(C(=N)N)cc1-c1nc(-c2ccc3ccccc3c2)cs1 [CHEMBL29290]	490 nM			
CSc1sc(C(=N)N)cc1-c1nc(-c2ccc(C)cc2)cs1 [CHEMBL29304]	420 nM			
CSc1sc(C(=N)N)cc1-c1nc(-c2cccs2)cs1 [CHEMBL31549]	700 nM			
CSc1sc(C(=N)N)cc1-c1nc(-c2cnn(-c3ccccc3)c2OCCC(C)C)cs1 [CHEMBL101698]	1500 nM			
CSc1sc(C(=N)N)cc1-c1nc(-c2cnn(C)c2)cs1 [CHEMBL102417]	460 nM			
CSc1sc(C(=N)N)cc1-c1nc(-c2cnn(-c3ccccc3)c2OCC2CCC2)cs1 [CHEMBL102835]	530 nM			
N=C(N)c1cc(-c2nc(-c3ccccc3)cs2)c(C(F)(F)F)s1 [CHEMBL103840]	12500 nM			
N=C(N)c1cc(-c2nc(-c3ccccc3)cs2)c(SCc2ccccc2)s1 [CHEMBL104368]	> 20000 nM			
CCSc1sc(C(=N)N)cc1-c1nc(-c2ccccc2)cs1 [CHEMBL105102]	> 20000 nM			
CS(=O)(=O)c1sc(C(=N)N)cc1-c1nc(-c2ccccc2)cs1 [CHEMBL105652]	> 28000 nM			
Cc1sc(C(=N)N)cc1-c1nc(-c2ccccc2)cs1 [CHEMBL106071]	6000 nM			
CCCc1nn(C)cc1-c1csc(-c2cc(C(=N)N)sc2SC)n1 [CHEMBL106388]	190 nM			
CSc1sc(C(=N)N)cc1-c1nc(-c2ccccc2)cs1 [CHEMBL281899]	560 nM			

SMILES	Ki (C1s [2])	IC50 (C1s [3]; [4])	remaining activity at 10 µM (Human isolated Factor Xa)	also measured
COc1ccccc1-c1csc(-c2cc(C(=N)N)sc2SC)n1 [CHEMBL283080]	850 nM			
CSc1sc(C(=N)N)cc1-c1nc(C2CCCCC2)cs1 [CHEMBL283859]	4700 nM			
CSc1sc(C(=N)N)cc1-c1nc(-c2ccc(Cl)cc2Cl)cs1 [CHEMBL285142]	3000 nM			
CSc1sc(C(=N)N)cc1-c1nc(-c2cccnc2Cl)cs1 [CHEMBL285818]	1020 nM			
CSc1sc(C(=N)N)cc1-c1nc(-c2ccc(Cl)cc2)cs1 [CHEMBL286243]	436 nM			
COc1ccc(-c2csc(-c3cc(C(=N)N)sc3SC)n2)c(OC)c1 [CHEMBL286267]	640 nM			
CSc1sc(C(=N)N)cc1-c1nc(-c2cccc(C)c2)cs1 [CHEMBL286498]	960 nM			
CSc1sc(C(=N)N)cc1-c1nc(COc2ccccc2)cs1 [CHEMBL287292]	520 nM			
CCCOc1c(-c2csc(-c3cc(C(=N)N)sc3SC)n2)cnn1-c1ccccn1 [CHEMBL317917]	70 nM			
CCCc1c(-c2csc(-c3cc(C(=N)N)sc3SC)n2)cnn1C [CHEMBL318576]	330 nM			
CCOc1c(-c2csc(-c3cc(C(=N)N)sc3SC)n2)cnn1-c1ccccc1 [CHEMBL321341]	90 nM			
N=C(N)c1cc(-c2nc(-c3ccccc3)cs2)cs1 [CHEMBL321519]	> 20000 nM			
COc1sc(C(=N)N)cc1-c1nc(-c2ccccc2)cs1 [CHEMBL322207]	14400 nM			
CSc1sc(C(=N)N)cc1-c1ncc(-c2ccccc2)s1 [CHEMBL322672]	3250 nM			
CSc1sc(C(=N)N)cc1-c1nc(-c2cnn(-c3ccccc3)c2)cs1 [CHEMBL322834]	150 nM			
CSc1sc(C(=N)N)cc1-c1nc(-c2ccc(Cl)c([N+](=O)[O-])c2)cs1 [CHEMBL413764]	860 nM			
CSc1sc(C(=N)N)cc1-c1nc(-c2ccc(-c3ccccc3)cc2)cs1 [CHEMBL418023]	15400 nM			
CCc1sc(C(=N)N)cc1-c1nc(-c2ccccc2)cs1 [CHEMBL441273]	3000 nM			
CCOc1ccc(C(=O)n2nnc3ccccc32)cc1 [Entry 1]		83 nM	30.3%	IC50 (C1s [3]; [5]): 83.3 nM
CC(=O)Nc1ccc(C(=O)n2nnc3ccccc32)cc1 [Entry 2]		91 nM	43.1%	IC50 (C1s [3]; [5]): 90.8 nM
COc1cc(SC)ccc1C(=O)n1nnc2ccccc21 [Entry 3]		240 nM	4.93%	

SMILES	Ki (C1s [2])	IC50 (C1s [3]; [4])	remaining activity at 10 µM (Human isolated Factor Xa)	also measured
CC(C)(C)c1ccc(C(=O)n2nnc3ccccc32)cc1 [Entry 4]		1300 nM	86.2%	
COc1ccc(C(=O)n2nnc3ccccc32)cc1OC [Entry 5]		1850 nM	48.3%	
O=C(c1ccc(F)c(F)c1)n1nnc2ccccc21 [Entry 6]		2160 nM	92.3%	
O=C(c1ccc(-c2ccccc2)cc1)n1nnc2ccccc21 [Entry 7]		3870 nM	92.1%	
CCN(CC)c1ccc(C(=O)n2nnc3ccccc32)cc1 [Entry 8]		5900 nM	76.5%	
COc1ccccc1C(=O)n1nc(-c2ccco2)nc1SC [Entry 9]		12 nM	2.39%	IC50 (C1s [3]; [5]): 11.6 nM; IC50 (Human isolated Factor Xa; 500 µM Boc-Leu-Gly-Arg-AMC): 1250 nM
CSc1nc(-c2ccco2)nn1C(=O)c1ccc(F)cc1 [Entry 10]		44 nM	78.1%	IC50 (C1s [3]; [5]): 43.6 nM
CSc1nc(-c2ccco2)nn1C(=O)c1ccccc1 [Entry 11]		94 nM	26%	IC50 (C1s [3]; [5]): 93.6 nM
CCOC(=O)CSc1nc(-c2cccnc2)nn1C(=O)c1ccccc1 [Entry 12]		2400 nM	85.4%	
O=c1oc(-c2ccco2)nc2cc(Cl)ccc12 [Entry 13]		474 nM	98.6%	
COc1cc2nc(-c3ccco3)oc(=O)c2cc1OC [Entry 14]		6440 nM	61.4%	
O=c1oc(-c2ccco2)nc2ccc(Cl)cc12 [Entry 15]		6700 nM	82%	IC50 (C1s [3]; [6]): 6680 nM
CC(=O)Oc1ccc2nc(-c3ccco3)oc(=O)c2c1 [Entry 16]		29000 nM	77.6%	
Cc1cc2c(=O)oc(-c3ccccc3Br)nc2s1 [Entry 18]		845 nM	46.1%	IC50 (C1s [3]; [6]): 846 nM
Cc1sc2nc(-c3ccccc3)oc(=O)c2c1C [Entry 19]		~20000 nM		
Cc1ccc(-c2nc3sc(C)c(C)c3c(=O)o2)cc1 [Entry 20]		~50000 nM		
O=c1nc(-c2cccs2)oc2cc(Cl)ccc12 [Entry 21]		241 nM	53.6%	IC50 (C1s [3]; [6]): 240 nM
O=c1nc(-c2ccco2)oc2ccc(Cl)cc12 [Entry 22]		3600 nM	0.14%	
Cc1cccc2c(=O)nc(-c3ccco3)oc12 [Entry 23]		41000 nM		

From article PMC6832932, “Design and Selection of Novel C1s Inhibitors by In Silico and In Vitro Approaches” (Molecules, 2019)
